Tests used:
delta-6-desaturase = delta-6-desaturase (Homo sapiens, UniProt O95864); assay: delta-6-desaturase activity; format: biochemical
Excerpt: (§1) Essential fatty acids are precursors of eicosanoids and are important structural components of cell membranes. They also provide the substrates for the generation of lipid peroxidation products which have an inhibitory action on cell proliferation. Tumor cells are known to have low delta-6-desaturase activity, an enzyme necessary for the desaturation of dietary linoleic acid (LA, 18:2, n-6) and alpha-linolenic acid (ALA, 18:3, n-3) to their respective products. […] This selective tumoricidal action of fatty acids seems to be mediated by free radicals and lipid peroxides.

delta-5-desaturase = delta-5-desaturase (Homo sapiens, UniProt O60427); assay: delta-5-desaturase activity; format: biochemical
Excerpt: as §1

endothelial cells = conditions: read-out: half-maximal inhibitory concentration (IC50); cited from earlier work
[1] = test system: normal human skin fibroblasts; conditions: at 100 micro M concentration; cited from earlier work
[2] = test system: breast cancer cells, MCF-7; conditions: cited from earlier work
[3] = test system: Chinese Hamster V79 cells; conditions: in culture; cited from earlier work
solid tumors = conditions: cited from earlier work
[4] = test system: SOD (superoxide dismutase); conditions: cited from earlier work
p53 protein = conditions: cited from earlier work
[5] = test system: tumor cells and normal cells; assay: PUFAs on tumor cells and normal cells in vitro; format: cell-based; conditions: for killing of tumor cells versus normal cells: in vitro
Excerpt: (§2) Tumor cells are not only deficient in PUFAs but also have low rate(s) of lipid peroxidation and low amounts of superoxide dismutase (SOD), and contain relatively large amounts of antioxidants such as vitamin E. It is also believed that low rates of lipid peroxidation and consequent low amounts of lipid peroxides in the cells can contribute to an increase in the mitotic process which ultimately leads to an increase in cell proliferation. Thus, a deficiency of PUFAs, high amounts of antioxidants and the presence of low amounts of lipid peroxides in the tumor cells can contribute to the growth of tumor cells.
as §1

[6] = test system: normal and tumor cells grown together; assay: mixed culture of normal and tumor cells; format: cell-based
Excerpt: as §2

skin papilloma = skin papilloma in mice; format: in vivo; conditions: pure fatty acid or fatty acid rich oils
hepatoma = hepatoma in rats; format: in vivo; conditions: pure fatty acid or fatty acid rich oils
ascitic tumor cells = ascitic tumor cells in the peritoneum; format: in vivo; conditions: experimental animals; pure fatty acid or fatty acid rich oils
tumor cells = assay: PUFA potentiation of anti-cancer drugs in tumor cells; format: cell-based; conditions: for cytotoxic action of doxorubicin, vincristine and cis-platinum: fatty acid added to anti-cancer drug
[7] = test system: TNF resistant L-929 tumor cells; assay: TNF resistant L-929 tumor cells in vitro; format: cell-based; conditions: for killing of TNF resistant L-929 tumor cells: in vitro; for sensitisation of TNF-resistant L-929 cells to TNF: prior treatment with fatty acid
KB-Ch^R-8-5 = assay: vincristine resistant KB-ChR-8-5 tumor cells; format: cell-based
bone marrow cells = assay: side effects of anti-cancer agents on mouse bone marrow cells; format: in vivo; conditions: mice
Excerpt: […], it is desirable that PUFAs should be delivered to the patients in such a manner that they are easily available to the tumor cells and are delivered selectively to the tumor cells.

[8] = test system: primary and metastatic tumors; conditions: experimental animals; cited from earlier work
endothelial cell = conditions: cited from earlier work
[9] = test system: proliferating endothelial cells; conditions: cited from earlier work
[10] = test system: subcutaneous hemangioendothelioma; conditions: mice with hemangioendothelioma and disseminated intravascular coagulopathy; cited from earlier work
[11] = test system: bovine capillary endothelial cells; conditions: in vitro; cited from earlier work
[12] = test system: free radical generation and lipid peroxidation; conditions: cited from earlier work
[13] = proliferating endothelial cells

delta-5-desaturase, sequence (O60427 whole entry, species assumed): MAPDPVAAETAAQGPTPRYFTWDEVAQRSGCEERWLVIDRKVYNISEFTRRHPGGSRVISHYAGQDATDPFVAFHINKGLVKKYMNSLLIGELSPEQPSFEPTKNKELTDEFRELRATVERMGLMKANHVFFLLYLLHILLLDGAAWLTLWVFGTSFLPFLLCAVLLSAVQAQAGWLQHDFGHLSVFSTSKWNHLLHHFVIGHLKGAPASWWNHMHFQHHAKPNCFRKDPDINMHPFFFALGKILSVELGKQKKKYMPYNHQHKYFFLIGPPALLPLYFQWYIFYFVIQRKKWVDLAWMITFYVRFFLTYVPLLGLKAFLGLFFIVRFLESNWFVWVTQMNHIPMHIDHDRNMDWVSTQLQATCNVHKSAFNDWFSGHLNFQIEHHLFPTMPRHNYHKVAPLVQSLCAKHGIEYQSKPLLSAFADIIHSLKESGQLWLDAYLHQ
delta-6-desaturase, sequence (O95864 whole entry, species assumed): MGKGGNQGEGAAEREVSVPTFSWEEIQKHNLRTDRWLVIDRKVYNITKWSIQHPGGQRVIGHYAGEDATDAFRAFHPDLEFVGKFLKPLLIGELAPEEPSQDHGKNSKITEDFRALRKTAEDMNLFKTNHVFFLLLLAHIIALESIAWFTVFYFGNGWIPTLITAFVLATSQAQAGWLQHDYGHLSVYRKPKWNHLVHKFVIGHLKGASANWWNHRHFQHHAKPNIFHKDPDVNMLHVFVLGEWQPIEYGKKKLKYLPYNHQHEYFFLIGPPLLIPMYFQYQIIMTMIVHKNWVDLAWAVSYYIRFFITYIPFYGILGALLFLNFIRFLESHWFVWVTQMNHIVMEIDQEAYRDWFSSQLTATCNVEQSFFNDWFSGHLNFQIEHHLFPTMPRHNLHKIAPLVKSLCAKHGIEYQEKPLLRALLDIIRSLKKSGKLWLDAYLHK

## CC(=O)Nc1ccc2c(c1)Cc1ccccc1-2 [2-AAF, 2-acetylaminofluorine]
delta-6-desaturase
  activity of delta-6-desaturase: can suppress the activity
delta-5-desaturase
  activity of delta-5-desaturase: can suppress the activity

## COc1cc2c(cc1O)CC[C@@H]1[C@@H]2CC[C@]2(C)[C@@H](O)CC[C@@H]12 [2-ME, 2-methoxyoestradiol]
Endothelial cells
  IC50: 150 nM
[1]
  effect on normal human skin fibroblasts: no effect
[2]
  action on MCF-7 cells: cytotoxic action
[3]
  growth of Chinese Hamster V79 cells: suppres the growth
Solid tumors; in vivo
  general toxicity: not associated with general toxicity
Solid tumors; oral administration, mice
  capillary formation in and growth of solid tumors: inhibit capillary formation in solid tumors and reduce their growth
[4]
  binding to SOD: able to bind to SOD
p53 protein
  accumulation of p53 protein: induce the accumulation of p53 protein

## CCCCC/C=C\C/C=C\C/C=C\C/C=C\CCCC(=O)O [AA, arachidonic acid]
[5]
  tumor cell proliferation: decrease tumor cell proliferation
  killing of tumor cells versus normal cells: only tumor cells are killed
[6]
  selective tumoricidal action in mixed culture: effective to some extent
Skin papilloma
  growth of skin papilloma: inhibit the growth
hepatoma
  formation and growth of hepatoma: inhibit the growth
Ascitic tumor cells
  growth of ascitic tumor cells in the peritoneum: inhibit the growth
Tumor cells
  cellular uptake of anti-cancer drugs by tumor cells: enhance the cellular uptake
  cytotoxic action of doxorubicin, vincristine and cis-platinum: can be augmented
[7]
  killing of TNF resistant L-929 tumor cells: able to kill
  sensitisation of TNF-resistant L-929 cells to TNF: rendered TNF sensitive
KB-Ch^R-8-5
  sensitisation of vincristine resistant cells to vincristine: made sensitive to the cytotoxic action of vincristine

## CC/C=C\C/C=C\C/C=C\CCCCCCCC(=O)O [ALA, alpha-linolenic acid]
[5]
  killing of tumor cells versus normal cells: only tumor cells are killed

## CCN(CC)N=O [DEN, diethylnitrosamine]
delta-6-desaturase
  activity of delta-6-desaturase: can suppress the activity
delta-5-desaturase
  activity of delta-5-desaturase: can suppress the activity

## CCCCC/C=C\C/C=C\C/C=C\CCCCCCC(=O)O [DGLA, dihomo-GLA]
[5]
  tumor cell proliferation: decrease tumor cell proliferation
  killing of tumor cells versus normal cells: only tumor cells are killed
Skin papilloma
  growth of skin papilloma: inhibit the growth
hepatoma
  formation and growth of hepatoma: inhibit the growth
Ascitic tumor cells
  growth of ascitic tumor cells in the peritoneum: inhibit the growth
Tumor cells
  cellular uptake of anti-cancer drugs by tumor cells: enhance the cellular uptake
  cytotoxic action of doxorubicin, vincristine and cis-platinum: can be augmented
[7]
  killing of TNF resistant L-929 tumor cells: able to kill
  sensitisation of TNF-resistant L-929 cells to TNF: rendered TNF sensitive
KB-Ch^R-8-5
  sensitisation of vincristine resistant cells to vincristine: made sensitive to the cytotoxic action of vincristine
Bone marrow cells
  side effects of gamma-radiation and cis-platinum to bone marrow cells: prevent or ameliorate the side effects

## CC/C=C\C/C=C\C/C=C\C/C=C\C/C=C\C/C=C\CCC(=O)O [DHA, docosahexaenoic acid]
Tumor cells
  cytotoxic action of doxorubicin, vincristine and cis-platinum: can be augmented

## CC/C=C\C/C=C\C/C=C\C/C=C\C/C=C\CCCC(=O)O [EPA, eicosapentaenoic acid]
Tumor cells
  cytotoxic action of doxorubicin, vincristine and cis-platinum: can be augmented
Bone marrow cells
  side effects of gamma-radiation and cis-platinum to bone marrow cells: prevent or ameliorate the side effects

## CCCCC/C=C\C/C=C\C/C=C\CCCCC(=O)O [GLA, gamma-linolenic acid]
[5]
  tumor cell proliferation: decrease tumor cell proliferation
  killing of tumor cells versus normal cells: only tumor cells are killed
hepatoma
  formation and growth of hepatoma: inhibit the growth
Ascitic tumor cells
  growth of ascitic tumor cells in the peritoneum: inhibit the growth
Tumor cells
  cellular uptake of anti-cancer drugs by tumor cells: enhance the cellular uptake
  cytotoxic action of doxorubicin, vincristine and cis-platinum: can be augmented
[7]
  killing of TNF resistant L-929 tumor cells: able to kill
Bone marrow cells
  side effects of gamma-radiation and cis-platinum to bone marrow cells: prevent or ameliorate the side effects

## CCCCC/C=C\C/C=C\CCCCCCCC(=O)O [LA, linoleic acid]
[5]
  killing of tumor cells versus normal cells: only tumor cells are killed

## CC\C=C/C=C/C=C/C=C\CCCCCCCC(=O)O [cis-parinaric acid]
[5]
  killing of tumor cells versus normal cells: only tumor cells are killed

## Endostatin®
[8]
  primary and metastatic tumors: dramatic reduction of primary and metastatic tumors
Endothelial cell
  endothelial cell proliferation and angiogenesis: specifically inhibit endothelial cell proliferation and angiogenesis

## angiostatin®
[9]
  cell cycle progression: did not alter cell cycle progression significantly
[9]; [13]
  adhesion activity: enhanced the adhesion activity
  change in expression of E-selectin: 4 to 5 fold
[10]
  size of the tumor: significant reduction in the size of the tumor
  survival: increased survival
[11]
  proliferation/growth of bovine capillary endothelial cells: inhibit the growth of bovine capillary endothelial cells

## superoxide dismutase
[12]
  free radical generation and lipid peroxidation generated by GLA, EPA and DHA: completely inhibit free radical generation and lipid peroxidation

## vitamin E
[12]
  free radical generation and lipid peroxidation generated by GLA, EPA and DHA: completely inhibit free radical generation and lipid peroxidation

Reference: patent US20020077317A1, “Method of potentating the action of 2-methoxyoestradiol, statins and C-peptide of proinsulin” (priority 2000, published 2002)
